# Results: BindingDB's records for doi:10.1021/acschembio.7b00369 (Baylor College of Medicine, 2017)
# Several values for one entry are separate records, joined by “and”; a condition that tells them apart may be missing. Identical values can stand only once.
# Experiments:
# Test in all cases: Microfluidic Mobility-Shift Assay
# Settings in all cases: pH 7
# [1] = molecular target: T1, cGMP-dependent protein kinase 2 [41-418] (Human, UniProt Q13237)
# T1 construct: 41-418
# T1 sequence (Q13237 whole entry): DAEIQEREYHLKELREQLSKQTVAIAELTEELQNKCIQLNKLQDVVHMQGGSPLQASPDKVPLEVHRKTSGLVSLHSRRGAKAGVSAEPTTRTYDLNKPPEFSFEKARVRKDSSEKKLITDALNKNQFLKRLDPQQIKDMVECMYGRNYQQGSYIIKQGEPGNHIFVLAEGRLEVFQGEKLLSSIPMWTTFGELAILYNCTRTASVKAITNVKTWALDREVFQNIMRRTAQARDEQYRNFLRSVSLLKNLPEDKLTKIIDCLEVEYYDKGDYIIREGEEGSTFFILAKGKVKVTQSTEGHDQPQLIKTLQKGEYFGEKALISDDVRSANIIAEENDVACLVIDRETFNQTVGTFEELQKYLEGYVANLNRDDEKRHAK
# [2] = molecular target: T2, Isoform Beta of cGMP-dependent protein kinase 1 [1-351] (Human, UniProt Q13976)
# T2 construct: 1-351
# T2 sequence (Q13976 whole entry): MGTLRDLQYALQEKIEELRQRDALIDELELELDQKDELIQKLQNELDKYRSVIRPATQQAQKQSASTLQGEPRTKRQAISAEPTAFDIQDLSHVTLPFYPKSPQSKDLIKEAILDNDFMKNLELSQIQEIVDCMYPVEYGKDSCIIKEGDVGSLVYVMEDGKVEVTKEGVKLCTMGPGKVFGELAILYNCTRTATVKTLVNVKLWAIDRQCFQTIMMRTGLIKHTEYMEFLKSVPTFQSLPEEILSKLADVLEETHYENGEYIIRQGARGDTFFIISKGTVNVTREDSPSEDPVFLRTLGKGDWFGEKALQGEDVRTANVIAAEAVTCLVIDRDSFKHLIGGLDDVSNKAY
# [3] = molecular target: T3, cGMP-dependent protein kinase 2 [41-418,G232E] (Human, UniProt Q13237, G232E)
# T3 construct: 41-418
# T3 sequence (Q13237 41-418 G232E): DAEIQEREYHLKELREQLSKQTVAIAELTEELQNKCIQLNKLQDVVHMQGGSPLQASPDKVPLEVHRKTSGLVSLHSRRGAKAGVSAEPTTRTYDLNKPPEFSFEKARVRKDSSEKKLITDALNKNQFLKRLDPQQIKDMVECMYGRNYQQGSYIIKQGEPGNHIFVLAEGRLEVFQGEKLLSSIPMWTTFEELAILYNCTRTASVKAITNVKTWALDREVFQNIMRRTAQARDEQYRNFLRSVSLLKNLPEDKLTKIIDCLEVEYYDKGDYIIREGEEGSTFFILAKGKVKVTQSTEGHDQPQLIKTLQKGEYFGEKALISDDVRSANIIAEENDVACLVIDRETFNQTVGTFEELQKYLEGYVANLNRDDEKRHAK
# [4] = molecular target: T4, Isoform Beta of cGMP-dependent protein kinase 1 [5-676,G306E] (Human, UniProt Q13976, G306E)
# T4 construct: 5-676
# T4 sequence (Q13976 as listed by the source G306E): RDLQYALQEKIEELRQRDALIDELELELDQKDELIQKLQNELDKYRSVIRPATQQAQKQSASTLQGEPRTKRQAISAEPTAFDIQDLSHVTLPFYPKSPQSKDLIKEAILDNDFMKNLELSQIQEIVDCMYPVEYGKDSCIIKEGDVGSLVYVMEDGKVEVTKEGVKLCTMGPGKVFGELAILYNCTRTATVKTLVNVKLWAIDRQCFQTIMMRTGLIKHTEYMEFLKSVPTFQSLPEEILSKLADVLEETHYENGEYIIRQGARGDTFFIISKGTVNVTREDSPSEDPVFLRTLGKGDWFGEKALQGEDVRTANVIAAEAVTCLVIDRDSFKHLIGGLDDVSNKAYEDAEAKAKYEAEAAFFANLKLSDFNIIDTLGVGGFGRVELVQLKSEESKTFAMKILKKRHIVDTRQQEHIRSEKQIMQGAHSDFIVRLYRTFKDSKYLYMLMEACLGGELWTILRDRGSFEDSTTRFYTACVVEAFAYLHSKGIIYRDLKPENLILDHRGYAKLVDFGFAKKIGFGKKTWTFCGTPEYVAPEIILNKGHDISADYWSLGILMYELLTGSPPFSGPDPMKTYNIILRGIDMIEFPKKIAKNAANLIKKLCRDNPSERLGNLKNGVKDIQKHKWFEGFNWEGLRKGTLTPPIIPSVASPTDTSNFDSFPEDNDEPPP
# [5] = molecular target: T5, Isoform Beta of cGMP-dependent protein kinase 1 [1-351,G306E] (Human, UniProt Q13976, G306E)
# T5 construct: 1-351
# T5 sequence (Q13976 as listed by the source G306E): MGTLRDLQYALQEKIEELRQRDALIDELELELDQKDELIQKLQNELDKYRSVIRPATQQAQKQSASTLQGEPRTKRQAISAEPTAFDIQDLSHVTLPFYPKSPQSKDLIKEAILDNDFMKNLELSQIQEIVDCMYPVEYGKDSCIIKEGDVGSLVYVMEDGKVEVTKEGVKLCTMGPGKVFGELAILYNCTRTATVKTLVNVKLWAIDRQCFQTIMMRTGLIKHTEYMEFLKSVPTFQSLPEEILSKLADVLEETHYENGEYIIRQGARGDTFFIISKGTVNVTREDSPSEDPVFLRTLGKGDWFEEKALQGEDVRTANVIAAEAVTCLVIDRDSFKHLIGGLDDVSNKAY
# [6] = molecular target: T6, cGMP-dependent protein kinase 2 (Homo sapiens, UniProt Q13237)
# T6 sequence (Q13237 whole entry): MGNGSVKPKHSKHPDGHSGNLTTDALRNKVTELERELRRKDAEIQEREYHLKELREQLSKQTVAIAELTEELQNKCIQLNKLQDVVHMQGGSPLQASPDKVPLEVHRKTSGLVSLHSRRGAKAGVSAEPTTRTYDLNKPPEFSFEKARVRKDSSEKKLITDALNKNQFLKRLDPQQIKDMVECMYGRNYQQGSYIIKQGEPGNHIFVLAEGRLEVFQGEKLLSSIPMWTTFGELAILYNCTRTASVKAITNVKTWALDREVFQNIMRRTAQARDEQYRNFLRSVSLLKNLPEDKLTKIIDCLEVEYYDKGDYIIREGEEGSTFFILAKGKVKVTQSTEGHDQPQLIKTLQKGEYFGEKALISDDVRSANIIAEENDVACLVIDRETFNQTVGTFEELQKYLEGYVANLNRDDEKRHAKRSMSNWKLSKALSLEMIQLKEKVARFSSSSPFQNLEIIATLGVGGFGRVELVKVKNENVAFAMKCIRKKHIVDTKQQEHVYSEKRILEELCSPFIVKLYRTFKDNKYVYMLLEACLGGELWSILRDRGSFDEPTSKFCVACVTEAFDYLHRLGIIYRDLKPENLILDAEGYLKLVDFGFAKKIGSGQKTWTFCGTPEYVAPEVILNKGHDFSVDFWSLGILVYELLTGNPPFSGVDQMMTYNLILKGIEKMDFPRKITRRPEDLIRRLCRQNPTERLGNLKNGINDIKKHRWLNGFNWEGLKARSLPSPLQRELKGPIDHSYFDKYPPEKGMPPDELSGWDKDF
# [7] = molecular target: T7, Isoform Beta of cGMP-dependent protein kinase 1 [1-351,G182E] (Human, UniProt Q13976, G182E)
# T7 construct: 1-351
# T7 sequence (Q13976 as listed by the source G182E): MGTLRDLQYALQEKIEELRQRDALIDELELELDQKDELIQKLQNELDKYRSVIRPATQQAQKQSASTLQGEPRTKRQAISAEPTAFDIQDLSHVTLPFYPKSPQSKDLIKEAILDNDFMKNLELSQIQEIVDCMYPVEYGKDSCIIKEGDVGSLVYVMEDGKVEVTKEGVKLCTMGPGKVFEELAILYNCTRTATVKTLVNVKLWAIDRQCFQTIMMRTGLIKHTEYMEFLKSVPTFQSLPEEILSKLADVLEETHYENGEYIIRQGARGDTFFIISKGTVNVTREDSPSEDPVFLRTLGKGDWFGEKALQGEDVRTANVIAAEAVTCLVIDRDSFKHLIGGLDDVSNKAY
# [8] = molecular target: T8, cGMP-dependent protein kinase 2 [41-418,G356E] (Human, UniProt Q13237, G356E)
# T8 construct: 41-418
# T8 sequence (Q13237 41-418 G356E): as the sequence (Q13237 41-418 G232E) above, with E192G, G316E counted along it
Compound,EC50 [1] [nM],EC50 [2],EC50 [3],EC50 [4],EC50 [5],EC50 [6] [nM],EC50 [7],EC50 [8] [nM]
"Nc1nc(O)c2nc(Br)n([C@@H]3O[C@@H]4COP(=O)(O)O[C@H]4[C@H]3O)c2n1 [2-amino-8-bromo-9-[(2R,4aR,6R,7R,7aS)-2,7-dihydroxy-2-oxotetrahydro-2H,4H-2lambda~5~-furo[3,2-d][1,3,2]dioxaphosphinin-6-yl]-1,9-dihydro-6H-purin-6-one]",20,222 nM,11 nM,206 nM,< 2 nM,58,765 nM,30
O=c1c2ncn([C@@H]3O[C@@H]4COP(=O)(O)O[C@H]4[C@H]3O)c2[nH]c2nc(-c3ccccc3)cn12 [PET-cGMP],193,3.8 nM,1960 nM,18 nM,< 2 nM,225,5.8 nM,5.3
Nc1nc(=O)c2nc(Sc3ccc(Cl)cc3)n([C@@H]3O[C@@H]4COP(=O)(O)O[C@H]4[C@H]3O)c2[nH]1 [8-pCP-cGMP],,163 nM and 212 nM,184 nM and 116 nM,370 nM and 249 nM,4.2 nM and 7.7 nM,,328 nM and 206 nM,
